Laboratory results from paper PMC7265341, “Quantifying CDK inhibitor selectivity in live cells” (Nature Communications, 2020).
Where two headings read alike, the source gives them in different places.

How the values were obtained:
[1] = target: CDK5/CDK5R1 (Homo sapiens, UniProt Q00535); assay: NanoBRET live-cell target engagement, CDK5-NanoLuc/CDK5R1 in HEK-293; assay type: binding; conditions: CDK5/CDK5R1, read-out: Inhibition at 10µM (%)
[2] = target: CDK16/Cyclin Y (Homo sapiens, UniProt Q00536); assay: NanoBRET live-cell target engagement, CDK16-NanoLuc/Cyclin Y in HEK-293; assay type: binding; conditions: CDK16/Y; for IC50: read-out: IC50; for inhibition at 10 µM: read-out: Inhibition at 10µM (%)
[3] = target: CDK17/Cyclin Y (Homo sapiens, UniProt Q00537); assay: NanoBRET live-cell target engagement, CDK17-NanoLuc/Cyclin Y in HEK-293; assay type: binding; conditions: CDK17/Y; for IC50: read-out: IC50; for inhibition at 10 µM: read-out: Inhibition at 10µM (%)
CDK17/Cyclin Y, sequence (Q00537 whole entry): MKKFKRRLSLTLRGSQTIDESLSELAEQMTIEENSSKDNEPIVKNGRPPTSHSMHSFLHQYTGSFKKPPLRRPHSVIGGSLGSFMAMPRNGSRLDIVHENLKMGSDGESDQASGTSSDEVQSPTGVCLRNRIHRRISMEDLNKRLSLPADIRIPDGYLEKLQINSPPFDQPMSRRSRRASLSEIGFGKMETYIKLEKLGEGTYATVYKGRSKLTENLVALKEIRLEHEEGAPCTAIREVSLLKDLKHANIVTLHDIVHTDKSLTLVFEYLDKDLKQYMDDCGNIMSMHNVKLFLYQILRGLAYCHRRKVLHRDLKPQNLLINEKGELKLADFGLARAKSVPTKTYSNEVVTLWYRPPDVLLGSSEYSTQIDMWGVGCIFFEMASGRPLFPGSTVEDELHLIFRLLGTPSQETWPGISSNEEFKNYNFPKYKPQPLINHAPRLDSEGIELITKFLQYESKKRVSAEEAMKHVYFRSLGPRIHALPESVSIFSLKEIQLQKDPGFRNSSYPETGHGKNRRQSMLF
CDK17/Cyclin Y, sequence (Q8ND76 whole entry partner): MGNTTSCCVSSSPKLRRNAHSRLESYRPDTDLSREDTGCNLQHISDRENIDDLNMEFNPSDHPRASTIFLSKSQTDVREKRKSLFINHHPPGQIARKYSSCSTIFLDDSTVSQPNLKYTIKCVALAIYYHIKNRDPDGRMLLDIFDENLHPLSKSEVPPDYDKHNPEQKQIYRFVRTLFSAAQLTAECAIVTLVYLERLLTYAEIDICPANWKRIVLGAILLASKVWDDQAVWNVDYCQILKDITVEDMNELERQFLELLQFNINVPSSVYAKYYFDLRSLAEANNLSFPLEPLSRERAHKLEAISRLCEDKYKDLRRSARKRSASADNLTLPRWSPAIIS

[4] = target: CDK9/Cyclin K (Homo sapiens, UniProt P50750); assay: NanoBRET live-cell target engagement, NanoLuc-CDK9/Cyclin K in HEK-293; assay type: binding; conditions: CDK9/K, read-out: Inhibition at 10µM (%)
CDK9/Cyclin K, sequence (P50750 whole entry): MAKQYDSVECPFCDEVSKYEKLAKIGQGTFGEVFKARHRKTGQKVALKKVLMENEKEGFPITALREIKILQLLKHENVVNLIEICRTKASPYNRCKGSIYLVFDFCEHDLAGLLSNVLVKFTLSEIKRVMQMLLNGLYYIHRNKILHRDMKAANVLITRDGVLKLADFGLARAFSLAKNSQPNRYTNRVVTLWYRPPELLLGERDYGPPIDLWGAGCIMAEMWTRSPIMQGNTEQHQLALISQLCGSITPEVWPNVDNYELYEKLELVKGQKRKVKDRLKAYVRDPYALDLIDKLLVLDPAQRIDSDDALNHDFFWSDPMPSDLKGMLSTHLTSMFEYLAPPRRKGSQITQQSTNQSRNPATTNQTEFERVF
CDK9/Cyclin K, sequence (O75909 whole entry partner): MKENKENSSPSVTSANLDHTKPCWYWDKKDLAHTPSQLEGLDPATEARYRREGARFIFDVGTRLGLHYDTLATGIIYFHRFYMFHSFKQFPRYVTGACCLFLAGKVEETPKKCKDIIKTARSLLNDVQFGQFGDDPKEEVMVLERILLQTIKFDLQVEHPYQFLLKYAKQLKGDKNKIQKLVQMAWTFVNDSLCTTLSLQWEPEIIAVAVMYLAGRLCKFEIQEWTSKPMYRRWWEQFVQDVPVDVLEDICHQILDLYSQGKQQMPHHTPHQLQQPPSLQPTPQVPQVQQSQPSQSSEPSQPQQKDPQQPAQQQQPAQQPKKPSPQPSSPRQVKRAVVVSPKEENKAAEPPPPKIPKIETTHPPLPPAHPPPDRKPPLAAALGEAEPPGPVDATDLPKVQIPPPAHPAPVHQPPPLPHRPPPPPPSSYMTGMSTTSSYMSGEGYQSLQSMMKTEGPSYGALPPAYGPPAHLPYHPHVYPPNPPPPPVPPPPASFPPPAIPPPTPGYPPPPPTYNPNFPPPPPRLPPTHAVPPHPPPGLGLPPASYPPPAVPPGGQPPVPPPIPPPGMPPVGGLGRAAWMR

[5] = target: CDK18/Cyclin Y (Homo sapiens, UniProt Q07002); assay: NanoBRET live-cell target engagement, CDK18-NanoLuc/Cyclin Y in HEK-293; assay type: binding; conditions: CDK18/Y; for IC50: read-out: IC50; for inhibition at 10 µM: read-out: Inhibition at 10µM (%)
[6] = target: CDK7 (Homo sapiens, UniProt P50613); assay: NanoBRET live-cell target engagement, NanoLuc-CDK7 in HEK-293; assay type: binding; conditions: CDK7; for IC50: read-out: IC50; for inhibition at 10 µM: read-out: Inhibition at 10µM (%)
[7] = target: CDK20/Cyclin H (Homo sapiens, UniProt Q8IZL9); assay: NanoBRET live-cell target engagement, NanoLuc-CDK20/Cyclin H in HEK-293; assay type: binding; conditions: CDK20/H, read-out: Inhibition at 10µM (%)
[8] = target: CDK10/Cyclin L2 (Homo sapiens, UniProt Q15131); assay: NanoBRET live-cell target engagement, CDK10-NanoLuc/Cyclin L2 in HEK-293; conditions: read-out: Inhibition at 10µM (%), CDK10/L2
CDK10/Cyclin L2, sequence (Q15131 whole entry): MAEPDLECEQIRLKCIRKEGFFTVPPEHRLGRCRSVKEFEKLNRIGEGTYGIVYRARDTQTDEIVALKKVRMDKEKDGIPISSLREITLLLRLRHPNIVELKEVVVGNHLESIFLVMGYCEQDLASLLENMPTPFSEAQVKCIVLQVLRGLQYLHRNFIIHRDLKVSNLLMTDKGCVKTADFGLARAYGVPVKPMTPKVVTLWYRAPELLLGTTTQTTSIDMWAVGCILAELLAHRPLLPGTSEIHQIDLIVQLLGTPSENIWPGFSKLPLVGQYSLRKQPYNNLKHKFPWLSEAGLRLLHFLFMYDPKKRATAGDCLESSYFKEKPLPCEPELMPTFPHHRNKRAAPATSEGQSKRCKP

[9] = target: CDK11B/Cyclin L2 (Homo sapiens, UniProt P21127); assay: NanoBRET live-cell target engagement, CDK11B-NanoLuc/Cyclin L2 in HEK-293; assay type: binding; conditions: CDK11b/L2, read-out: Inhibition at 10µM (%)
[10] = target: CDK6/Cyclin D1 (Homo sapiens, UniProt Q00534); assay: NanoBRET live-cell target engagement, NanoLuc-CDK6/Cyclin D1 in HEK-293; assay type: binding; conditions: CDK6/D1; for IC50: read-out: IC50; for inhibition at 10 µM: read-out: Inhibition at 10µM (%)
[11] = target: CDK4/Cyclin D1 (Homo sapiens, UniProt P11802); assay: NanoBRET live-cell target engagement, NanoLuc-CDK4/Cyclin D1 in HEK-293; assay type: binding; conditions: CDK4/D1; for IC50: read-out: IC50; for inhibition at 10 µM: read-out: Inhibition at 10µM (%)
[12] = target: T1, CDK11A/Cyclin L2 (Homo sapiens, UniProt Q9UQ88); assay: NanoBRET live-cell target engagement, CDK11A-NanoLuc/Cyclin L2 in HEK-293; assay type: binding; conditions: CDK11a/L2, read-out: Inhibition at 10µM (%)
T1 sequence (Q9UQ88 1-783): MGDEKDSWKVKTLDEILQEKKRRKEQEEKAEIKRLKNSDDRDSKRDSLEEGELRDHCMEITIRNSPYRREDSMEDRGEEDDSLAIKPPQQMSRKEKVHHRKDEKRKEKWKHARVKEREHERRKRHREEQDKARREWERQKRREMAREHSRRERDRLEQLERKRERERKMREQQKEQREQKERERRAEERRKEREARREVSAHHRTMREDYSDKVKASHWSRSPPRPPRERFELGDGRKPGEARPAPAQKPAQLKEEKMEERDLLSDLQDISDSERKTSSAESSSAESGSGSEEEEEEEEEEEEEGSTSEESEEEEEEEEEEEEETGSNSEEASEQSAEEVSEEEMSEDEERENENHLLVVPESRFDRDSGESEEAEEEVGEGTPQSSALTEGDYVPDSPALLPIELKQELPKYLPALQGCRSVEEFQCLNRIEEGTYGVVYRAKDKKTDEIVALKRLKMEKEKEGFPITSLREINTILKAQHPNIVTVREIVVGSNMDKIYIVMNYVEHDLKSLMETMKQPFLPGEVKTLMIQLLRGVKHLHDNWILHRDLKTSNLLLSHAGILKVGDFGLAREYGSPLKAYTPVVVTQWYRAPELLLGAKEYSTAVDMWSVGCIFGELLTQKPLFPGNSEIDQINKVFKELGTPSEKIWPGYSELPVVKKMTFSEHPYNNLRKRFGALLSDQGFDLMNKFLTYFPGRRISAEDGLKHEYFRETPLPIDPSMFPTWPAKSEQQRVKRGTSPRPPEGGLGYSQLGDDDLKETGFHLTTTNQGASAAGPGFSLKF

[13] = target: CDK14/Cyclin Y (Homo sapiens, UniProt O94921); assay: NanoBRET live-cell target engagement, CDK14-NanoLuc/Cyclin Y in HEK-293; assay type: binding; conditions: CDK14/Y; for IC50: read-out: IC50; for inhibition at 10 µM: read-out: Inhibition at 10µM (%)
CDK14/Cyclin Y, sequence (O94921 whole entry): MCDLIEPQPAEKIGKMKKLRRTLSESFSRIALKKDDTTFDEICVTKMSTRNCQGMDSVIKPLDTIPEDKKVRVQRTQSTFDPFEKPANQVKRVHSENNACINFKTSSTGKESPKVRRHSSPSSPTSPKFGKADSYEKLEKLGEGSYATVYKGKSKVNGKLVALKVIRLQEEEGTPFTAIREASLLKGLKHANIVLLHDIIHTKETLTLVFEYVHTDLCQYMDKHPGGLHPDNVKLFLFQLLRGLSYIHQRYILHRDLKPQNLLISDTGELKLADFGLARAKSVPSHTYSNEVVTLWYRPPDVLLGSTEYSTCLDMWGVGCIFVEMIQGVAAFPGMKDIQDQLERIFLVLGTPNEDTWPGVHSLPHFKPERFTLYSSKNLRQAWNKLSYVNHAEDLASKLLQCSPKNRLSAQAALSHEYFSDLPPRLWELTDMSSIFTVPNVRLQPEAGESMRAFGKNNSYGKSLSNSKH
CDK14/Cyclin Y, sequence (Q8ND76 whole entry partner): as the sequence (Q8ND76 whole entry partner) above

[14] = target: CDK8/Cyclin C (Homo sapiens, UniProt P49336); assay: NanoBRET live-cell target engagement, NanoLuc-CDK8/Cyclin C in HEK-293; assay type: binding; conditions: CDK8/C, read-out: Inhibition at 10µM (%)
[15] = target: CDK2/Cyclin E1 (Homo sapiens, UniProt P24941); assay: NanoBRET live-cell target engagement, CDK2-NanoLuc/Cyclin E1 in HEK-293; assay type: binding; conditions: CDK2/E1, read-out: Inhibition at 10µM (%)
[16] = target: CDK19/Cyclin C (Homo sapiens, UniProt Q9BWU1); assay: NanoBRET live-cell target engagement, NanoLuc-CDK19/Cyclin C in HEK-293; conditions: read-out: Inhibition at 10µM (%), CDK19/C
CDK19/Cyclin C, sequence (Q9BWU1 whole entry): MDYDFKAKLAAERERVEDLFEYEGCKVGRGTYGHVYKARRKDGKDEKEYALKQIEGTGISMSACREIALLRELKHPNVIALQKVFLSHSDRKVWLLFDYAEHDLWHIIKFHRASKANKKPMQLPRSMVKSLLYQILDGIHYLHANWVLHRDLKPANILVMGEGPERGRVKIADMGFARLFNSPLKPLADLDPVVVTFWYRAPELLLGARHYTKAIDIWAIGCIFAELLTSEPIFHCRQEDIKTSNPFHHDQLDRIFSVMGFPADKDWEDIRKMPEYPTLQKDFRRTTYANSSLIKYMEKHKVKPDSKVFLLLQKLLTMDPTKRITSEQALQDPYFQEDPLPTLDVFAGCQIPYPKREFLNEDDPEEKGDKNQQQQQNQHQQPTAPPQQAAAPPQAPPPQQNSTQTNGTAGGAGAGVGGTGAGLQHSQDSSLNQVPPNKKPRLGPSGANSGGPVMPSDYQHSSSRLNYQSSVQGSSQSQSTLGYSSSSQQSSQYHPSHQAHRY
CDK19/Cyclin C, sequence (P24863 whole entry partner): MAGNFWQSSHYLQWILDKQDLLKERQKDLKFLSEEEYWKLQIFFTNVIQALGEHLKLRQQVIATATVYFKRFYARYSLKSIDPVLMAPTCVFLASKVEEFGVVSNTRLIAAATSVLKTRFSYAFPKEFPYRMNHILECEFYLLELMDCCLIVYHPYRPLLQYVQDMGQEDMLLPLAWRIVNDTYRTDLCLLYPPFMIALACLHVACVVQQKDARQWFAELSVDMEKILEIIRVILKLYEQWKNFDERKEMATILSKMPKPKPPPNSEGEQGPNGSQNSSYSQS

[17] = target: CDK15/Cyclin Y (Homo sapiens, UniProt Q96Q40); assay: NanoBRET live-cell target engagement, NanoLuc-CDK15/Cyclin Y in HEK-293; assay type: binding; conditions: CDK15/Y, read-out: Inhibition at 10µM (%)
[18] = target: CDK13/Cyclin K (Homo sapiens, UniProt Q14004); assay: NanoBRET live-cell target engagement, CDK13-NanoLuc/Cyclin K in HEK-293; assay type: binding; conditions: CDK13/K, read-out: Inhibition at 10µM (%)
[19] = target: CDK1/Cyclin E1 (Homo sapiens, UniProt P06493); assay: NanoBRET live-cell target engagement, CDK1-NanoLuc/Cyclin E1 in HEK-293; assay type: binding; conditions: CDK1/E1, read-out: Inhibition at 10µM (%)
CDK1/Cyclin E1, sequence (P06493 whole entry): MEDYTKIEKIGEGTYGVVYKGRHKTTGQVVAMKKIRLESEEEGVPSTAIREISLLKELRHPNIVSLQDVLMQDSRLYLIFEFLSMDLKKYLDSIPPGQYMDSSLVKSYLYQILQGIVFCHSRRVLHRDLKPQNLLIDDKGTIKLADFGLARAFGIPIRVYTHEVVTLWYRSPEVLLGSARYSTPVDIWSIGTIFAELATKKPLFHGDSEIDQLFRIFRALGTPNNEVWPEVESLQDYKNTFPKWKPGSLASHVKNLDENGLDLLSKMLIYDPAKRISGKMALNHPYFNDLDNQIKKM
CDK1/Cyclin E1, sequence (P24864 whole entry partner): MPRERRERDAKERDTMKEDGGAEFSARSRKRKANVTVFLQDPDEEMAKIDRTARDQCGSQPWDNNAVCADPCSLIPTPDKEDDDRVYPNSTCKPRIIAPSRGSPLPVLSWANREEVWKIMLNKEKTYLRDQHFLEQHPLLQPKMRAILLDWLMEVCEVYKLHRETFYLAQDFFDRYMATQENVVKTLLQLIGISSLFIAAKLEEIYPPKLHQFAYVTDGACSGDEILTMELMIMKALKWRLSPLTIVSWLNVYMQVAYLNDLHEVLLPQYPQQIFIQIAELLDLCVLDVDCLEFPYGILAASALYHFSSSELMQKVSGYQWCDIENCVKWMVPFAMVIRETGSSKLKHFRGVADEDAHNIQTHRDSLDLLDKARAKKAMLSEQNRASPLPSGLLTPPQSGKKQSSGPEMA

CDK5/CDK5R1, sequence (Q00535 whole entry): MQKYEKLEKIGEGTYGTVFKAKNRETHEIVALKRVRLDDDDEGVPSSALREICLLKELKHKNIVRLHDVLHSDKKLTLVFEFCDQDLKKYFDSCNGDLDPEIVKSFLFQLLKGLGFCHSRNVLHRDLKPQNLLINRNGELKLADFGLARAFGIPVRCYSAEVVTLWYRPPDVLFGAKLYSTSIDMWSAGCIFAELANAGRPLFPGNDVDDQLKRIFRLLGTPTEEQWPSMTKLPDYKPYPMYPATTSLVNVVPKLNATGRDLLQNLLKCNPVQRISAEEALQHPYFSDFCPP
CDK5/CDK5R1, sequence (Q15078 whole entry partner): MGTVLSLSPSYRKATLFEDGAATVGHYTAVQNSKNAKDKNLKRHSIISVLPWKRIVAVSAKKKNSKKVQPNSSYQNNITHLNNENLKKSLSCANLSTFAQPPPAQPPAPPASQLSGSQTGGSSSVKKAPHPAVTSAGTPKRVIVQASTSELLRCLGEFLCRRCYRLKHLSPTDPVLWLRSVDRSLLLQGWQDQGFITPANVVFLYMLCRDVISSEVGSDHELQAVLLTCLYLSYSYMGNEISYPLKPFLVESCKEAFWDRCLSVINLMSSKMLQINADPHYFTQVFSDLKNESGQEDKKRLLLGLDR

inhibition at 10 µM ([1]; average): 4.3% | inhibition at 10 µM ([1]; experiment 1): 8% | inhibition at 10 µM ([1]; experiment 2): 0.554% | IC50 ([2]; average (± SEM where n=3)): 39 ± 8 nM | IC50 ([2]; experiment 1): 23 nM | inhibition at 10 µM ([2]; experiment 1): 70.3% | IC50 ([2]; experiment 2): 47 nM | inhibition at 10 µM ([2]; experiment 2): 78.8% | IC50 ([2]; experiment 3): 48 nM | IC50 ([3]; average (± SEM where n=3)): 40 ± 4 nM | inhibition at 10 µM ([3]; average): 75.5% | IC50 ([3]; experiment 1): 32 nM | inhibition at 10 µM ([3]; experiment 1): 72.1% | IC50 ([3]; experiment 2): 43 nM | inhibition at 10 µM ([3]; experiment 2): 78.9% | IC50 ([3]; experiment 3): 44 nM | inhibition at 10 µM ([4]; average): 34.2% | inhibition at 10 µM ([4]; experiment 1): 32% | inhibition at 10 µM ([4]; experiment 2): 36.4% | IC50 ([5]; average (± SEM where n=3)): 240 ± 50 nM | inhibition at 10 µM ([5]; average): 38.8% | IC50 ([5]; experiment 1): 283 nM | inhibition at 10 µM ([5]; experiment 1): 27.5% | IC50 ([5]; experiment 2): 300 nM | inhibition at 10 µM ([5]; experiment 2): 50% | IC50 ([5]; experiment 3): 150 nM | IC50 ([6]; average (± SEM where n=3)): 143 ± 4 nM | inhibition at 10 µM ([6]; average): 28.4% | IC50 ([6]; experiment 1): 140 nM | inhibition at 10 µM ([6]; experiment 1): 28.2% | IC50 ([6]; experiment 2): 150 nM | inhibition at 10 µM ([6]; experiment 2): 28.5% | IC50 ([6]; experiment 3): 139 nM | inhibition at 10 µM ([7]; experiment 1): 23.1% | inhibition at 10 µM ([7]; experiment 2): 26.8% | inhibition at 10 µM ([8]; average): 4.6% | inhibition at 10 µM ([8]; experiment 1): 8.8% | inhibition at 10 µM ([8]; experiment 2): 0.3% | inhibition at 10 µM ([9]; average): 36.8% | inhibition at 10 µM ([9]; experiment 1): 11.7% | inhibition at 10 µM ([9]; experiment 2): 61.9% | IC50 ([10]; average (± SEM where n=3)): 4 ± 1 nM | inhibition at 10 µM ([10]; average): 97.7% | IC50 ([10]; experiment 1): 4.8 nM | inhibition at 10 µM ([10]; experiment 1): 96.9% | IC50 ([10]; experiment 2): 3.4 nM | inhibition at 10 µM ([10]; experiment 2): 98.5% | IC50 ([10]; experiment 3): 3 nM | IC50 ([11]; average (± SEM where n=3)): 9 ± 3 nM | inhibition at 10 µM ([11]; average): 95.1% | IC50 ([11]; experiment 1): 6.9 nM | inhibition at 10 µM ([11]; experiment 1): 95.8% | IC50 ([11]; experiment 2): 5 nM | inhibition at 10 µM ([11]; experiment 2): 94.3% | IC50 ([11]; experiment 3): 15 nM | inhibition at 10 µM ([12]; average): 12.6% | inhibition at 10 µM ([12]; experiment 1): 15.7% | inhibition at 10 µM ([12]; experiment 2): 9.5% | IC50 ([13]; average (± SEM where n=3)): 120 ± 60 nM | inhibition at 10 µM ([13]; average): 45.4% | IC50 ([13]; experiment 1): 34 nM | inhibition at 10 µM ([13]; experiment 1): 56.3% | IC50 ([13]; experiment 2): 220 nM | inhibition at 10 µM ([13]; experiment 2): 34.4% | IC50 ([13]; experiment 3): 99 nM | inhibition at 10 µM ([14]; average): 8.5% | inhibition at 10 µM ([14]; experiment 1): 6.2% | inhibition at 10 µM ([14]; experiment 2): 10.8% | inhibition at 10 µM ([15]; average): 12.6% | inhibition at 10 µM ([15]; experiment 1): 14.4% | inhibition at 10 µM ([15]; experiment 2): 10.7% | inhibition at 10 µM ([16]; average): -0.3% | inhibition at 10 µM ([16]; experiment 1): 6.6% | inhibition at 10 µM ([16]; experiment 2): -7.2% | inhibition at 10 µM ([17]; average): 29.2% | inhibition at 10 µM ([17]; experiment 1): 36% | inhibition at 10 µM ([17]; experiment 2): 22.5% | inhibition at 10 µM ([18]; average): -15.1% | inhibition at 10 µM ([18]; experiment 1): -1% | inhibition at 10 µM ([18]; experiment 2): -29.2% | inhibition at 10 µM ([19]; average): 18.6% | inhibition at 10 µM ([19]; experiment 1): 20.1% | inhibition at 10 µM ([19]; experiment 2): 17.1%
Structure (SMILES): CN1CCN(c2ccc(Nc3ncc4cc(C#N)c(=O)n(C5CCCC5)c4n3)cc2)CC1 [ON123300]
